The results in this text go back to PubChem BioAssay (NCI).

Test systems include 786-0 renal; EKVX NSCLC; HCT-116 colon; MALME-3M melanoma; RXF 393 renal; SF-539 CNS; SK-MEL-2 melanoma; SNB-19 CNS; A549 NSCLC; COLO 205 colon.
Common to all, as to assay: DTP human tumour cell line panel, 48 h

Values joined by “and” are separate entries in the source; they are usually repeats but may differ in a detail not shown here. Equal entries are not always repeated.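 Where inhibition never reached the appropriate level, the endpoint shown equals the highest concentration tested. Otherwise, values were interpolated linearly from a five-concentration, 48-hour dose response in 96-well plates. At the GI50, growth is halved. TGI: total growth inhibition.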

Take `Cn1cc(-c2csc(-c3c[nH]c4ncccc34)n2)c2cc(Br)cnc21`: the GI50 (as a rule, the concentration that inhibits growth by half) was 9.65 µM in the experiment on 786-0 renal; 1.27 µM with EKVX NSCLC; 2.91 µM in the experiment with HCT-116 colon; 3.01 µM in the experiment on MALME-3M melanoma; 2.05 µM in the experiment with RXF 393 renal; 27.7 µM in the experiment with SF-539 CNS. Also, the GI50 is 19.8 µM in the experiment on SK-MEL-2 melanoma and 6.74 µM in the experiment with SNB-19 CNS. The TGI (in general, the concentration at which net growth stops) was over 100 µM in the experiment with 786-0 renal; over 100 µM in the experiment on EKVX NSCLC; over 100 µM in the experiment with HCT-116 colon; over 100 µM with MALME-3M melanoma; 8.63 µM in the experiment on RXF 393 renal; over 100 µM with SF-539 CNS. For the same molecule, the total growth inhibition concentration (TGI) in the experiment on SK-MEL-2 melanoma is 66.7 µM; in the experiment with SNB-19 CNS, over 100 µM.
In the case of `CC(=O)OC1C=CC2CCN3C(=O)c4cc5c(cc4[C@H]1C23)OCO5` (stereo not given in full), the TGI in the experiment with 786-0 renal, in the experiment on A549 NSCLC, with COLO 205 colon, with EKVX NSCLC, with HCT-116 colon and with MALME-3M melanoma was over 100 µM in each case. Further, the TGI in the experiment on RXF 393 renal, in the experiment with SF-539 CNS and in the experiment with SNB-19 CNS was over 100 µM each time.
As for `COc1ccc(/C=C/C(=O)c2sc(N)nc2C)cc1`, the total growth inhibition concentration (TGI) with 786-0 renal, in the experiment with A549 NSCLC, with COLO 205 colon, with EKVX NSCLC, in the experiment with MALME-3M melanoma and with RXF 393 renal was over 100 µM in each case. Besides, the total growth inhibition concentration (TGI) in the experiment with SF-539 CNS, with SK-MEL-2 melanoma and in the experiment on SNB-19 CNS was over 100 µM each time.
Regarding `Nc1ccc2c(c1)C(=O)c1ccc(F)cc1-2`, the TGI in the experiment with 786-0 renal, with A549 NSCLC, in the experiment with COLO 205 colon, with EKVX NSCLC, in the experiment with HCT-116 colon and in the experiment with RXF 393 renal was over 100 µM each time. Further, the concentration for total growth inhibition (TGI) in the experiment on SF-539 CNS, in the experiment with SK-MEL-2 melanoma and with SNB-19 CNS was over 100 µM in each case.
Regarding `O=C1NC(=NCc2cccs2)SC1Cc1ccc2ncccc2c1` (stereo not given), the GI50 is over 24.1 µM in the experiment on 786-0 renal; 18.5 µM in the experiment with A549 NSCLC; 10.2 µM in the experiment with COLO 205 colon; 10.7 µM with HCT-116 colon; 24.7 µM in the experiment on MALME-3M melanoma; over 19.3 µM in the experiment on RXF 393 renal. Further, the GI50 with SF-539 CNS was 10.3 µM; with SK-MEL-2 melanoma, over 25 µM; with SNB-19 CNS, over 25 µM. In addition, the TGI with 786-0 renal, in the experiment with A549 NSCLC, in the experiment with COLO 205 colon, in the experiment on HCT-116 colon, with MALME-3M melanoma and with RXF 393 renal was over 25 µM throughout. In addition, the TGI in the experiment on SF-539 CNS, in the experiment on SK-MEL-2 melanoma and with SNB-19 CNS was over 25 µM each time.
With `Fc1ccc(-c2nc(-c3nc4ccc(Cl)cc4[nH]3)cc3c2[nH]c2ccccc23)cc1`, the GI50 is 5.71 µM in the experiment with 786-0 renal; 2.89 µM with A549 NSCLC; 1.89 µM in the experiment on COLO 205 colon; 3.29 µM in the experiment with HCT-116 colon; 4.54 µM in the experiment on MALME-3M melanoma; 1.62 µM with RXF 393 renal. Further, the figures for the GI50 with SF-539 CNS, with SK-MEL-2 melanoma and in the experiment with SNB-19 CNS were 3.55 µM, 2.76 µM and 4.27 µM, respectively. Moreover, the concentration for total growth inhibition (TGI) in the experiment with 786-0 renal worked out at 18.7 µM; with A549 NSCLC it was 12.3 µM; in the experiment with COLO 205 colon it was 4.22 µM; in the experiment on HCT-116 colon, 12.5 µM; in the experiment with MALME-3M melanoma, 17.3 µM; in the experiment with RXF 393 renal, 4.66 µM. In addition, the TGI was 13.8 µM in the experiment on SF-539 CNS, 7.54 µM with SK-MEL-2 melanoma and over 100 µM in the experiment with SNB-19 CNS.
Consider `O=[N+]([O-])c1cccc(C2SCc3nc4ccccc4n32)c1` (stereo not given), for which the TGI with 786-0 renal, in the experiment on A549 NSCLC, with COLO 205 colon, with EKVX NSCLC, with MALME-3M melanoma and with RXF 393 renal was over 100 µM in each case. Also, the TGI in the experiment on SF-539 CNS, with SK-MEL-2 melanoma and in the experiment with SNB-19 CNS was over 100 µM each time.
On to `O=C1NC(=NCC(CO)c2ccccc2)S/C1=C\c1ccc2ncccc2c1` (stereo not given), for which the GI50 in the experiment with 786-0 renal is over 25 µM; with A549 NSCLC, 16.2 µM; in the experiment with COLO 205 colon, 7.77 µM; in the experiment with HCT-116 colon, 8.51 µM; in the experiment with MALME-3M melanoma, over 25 µM; in the experiment with RXF 393 renal, over 20.3 µM. The GI50 in the experiment with SF-539 CNS was 11.2 µM; in the experiment with SK-MEL-2 melanoma, over 25 µM; in the experiment with SNB-19 CNS it was over 25 µM. Besides, the concentration for total growth inhibition (TGI) in the experiment on 786-0 renal, in the experiment with A549 NSCLC, in the experiment with COLO 205 colon, with HCT-116 colon, with MALME-3M melanoma and with RXF 393 renal was over 25 µM in each case. The concentration for total growth inhibition (TGI) in the experiment on SF-539 CNS, in the experiment with SK-MEL-2 melanoma and in the experiment on SNB-19 CNS was over 25 µM each time.
For `CC1=C(N2CC2)C(=O)C(CO)=C(N2CC2)C1=O`, the GI50 is 0.00201 µM in the experiment with 786-0 renal; 0.135 µM and 0.084 µM in the experiment on COLO 205 colon; 0.00728 µM with HCT-116 colon; 0.00301 µM with SF-539 CNS; 0.0025 µM in the experiment on SNB-19 CNS. Also, the total growth inhibition concentration (TGI) with 786-0 renal was 0.0199 µM and 0.133 µM; with COLO 205 colon, 0.29 µM and 0.23 µM; in the experiment on EKVX NSCLC, 0.99 µM; with HCT-116 colon, 0.0392 µM and 0.336 µM; in the experiment with MALME-3M melanoma, 0.116 µM; in the experiment on RXF 393 renal it was 0.0946 µM. The TGI in the experiment with SF-539 CNS was 0.019 µM and 0.0593 µM; in the experiment on SK-MEL-2 melanoma it was 0.0988 µM and 0.585 µM.
On to `C=C1CC[C@@H]2C(C)(C)[C@@H](O)CC[C@@]2(C)[C@@H]1COc1ccc2ccc(=O)oc2c1`, for which the GI50 in the experiment with 786-0 renal is 14.8 µM; in the experiment with A549 NSCLC it was 8.46 µM; in the experiment on EKVX NSCLC it was 10.6 µM; in the experiment on HCT-116 colon it was 11.1 µM; in the experiment with RXF 393 renal, 7.41 µM; with SF-539 CNS, 14.7 µM. Further, the figures for the GI50 in the experiment with SK-MEL-2 melanoma and in the experiment with SNB-19 CNS were 15.5 µM and 14.1 µM, respectively. In addition, the total growth inhibition concentration (TGI) is 30.6 µM in the experiment on 786-0 renal; 66.8 µM in the experiment on A549 NSCLC; 25.6 µM with EKVX NSCLC; 28 µM with HCT-116 colon; 31.2 µM in the experiment with MALME-3M melanoma; 21.9 µM with RXF 393 renal. The concentration for total growth inhibition (TGI) in the experiment on SF-539 CNS is 28.5 µM; in the experiment on SK-MEL-2 melanoma it was 32.8 µM; in the experiment with SNB-19 CNS, 34.2 µM.
Regarding `CCCCCCCCCCCCCCCCOC(=O)C(C(=O)OCCCCCCCCCCCCCCCC)[N+](C)(C)CCOC(C)=O`, the TGI worked out at 32.7 µM in the experiment on 786-0 renal; 42.6 µM with A549 NSCLC; 36 µM in the experiment on COLO 205 colon; 43.7 µM in the experiment on EKVX NSCLC; 33.1 µM in the experiment on HCT-116 colon; 41.2 µM in the experiment with MALME-3M melanoma. Besides, the TGI with RXF 393 renal is 8.98 µM; in the experiment with SK-MEL-2 melanoma it was 36.8 µM; with SNB-19 CNS, 43.8 µM.
